Assay [1] deals with Drosophila melanogaster. Put plainly: Insecticidal activity against first-instar larval stage of Drosophila melanogaster fed with artificial diet containing compound assessed as mortality measured after 24 hr. The class given is functional. To be noted: read-out: LD50 (the source's name).
The subject of assay [2] is Drosophila melanogaster. Put plainly: Insecticidal activity against first-instar larval stage of Drosophila melanogaster fed with artificial diet containing compound assessed as mortality at 37.6 umol/ml measured after 72 hr (reference value: 3.33 +/-0.33%). The class given is functional.
Assay [3] deals with Drosophila melanogaster. Put plainly: Insecticidal activity against first-instar larval stage of Drosophila melanogaster fed with artificial diet containing compound assessed as mortality at 37.6 umol/ml measured after 48 hr (reference value: 0%). Format: functional.
For assay [4], the system named is Drosophila melanogaster. Put plainly: Insecticidal activity against first-instar larval stage of Drosophila melanogaster fed with artificial diet containing compound assessed as mortality at 37.6 umol/ml measured after 24 hr (reference value: 0%). Format: functional.
The subject of assay [5] is Drosophila melanogaster. Put plainly: Insecticidal activity against first-instar larval stage of Drosophila melanogaster fed with artificial diet containing compound assessed as mortality at 18.3 umol/ml measured after 48 hr (reference value: 0%). Format: functional.
The subject of assay [6] is Drosophila melanogaster. Put plainly: Insecticidal activity against first-instar larval stage of Drosophila melanogaster fed with artificial diet containing compound assessed as mortality at 18.3 umol/ml measured after 24 hr (reference value: 0%). The class given is functional.
The subject of assay [7] is Drosophila melanogaster. Put plainly: Insecticidal activity against first-instar larval stage of Drosophila melanogaster fed with artificial diet containing compound assessed as mortality at 8.3 umol/ml measured after 72 hr (reference value: 0%). The class given is functional.
Assay [8] deals with Drosophila melanogaster. Put plainly: Insecticidal activity against first-instar larval stage of Drosophila melanogaster fed with artificial diet containing compound assessed as mortality at 8.3 umol/ml measured after 48 hr (reference value: 0%). Format: functional.
Assay [9] has as its system Drosophila melanogaster. Put plainly: Insecticidal activity against first-instar larval stage of Drosophila melanogaster fed with artificial diet containing compound assessed as mortality at 8.3 umol/ml measured after 24 hr (reference value: 0%). Format: functional.
In assay [10] the test system is Drosophila melanogaster. Put plainly: Insecticidal activity against first-instar larval stage of Drosophila melanogaster fed with artificial diet containing compound assessed as mortality at 18.3 umol/ml measured after 72 hr (reference value: 0%). The class given is functional.
The test system of assay [11] is Drosophila melanogaster. Put plainly: Insecticidal activity against first-instar larval stage of Drosophila melanogaster fed with artificial diet containing compound assessed as mortality at 37.6 umol/ml measured after 144 hr. Format: functional.
Assay [12] relates to Drosophila melanogaster. Put plainly: Insecticidal activity against first-instar larval stage of Drosophila melanogaster fed with artificial diet containing compound assessed as mortality at 37.6 umol/ml measured after 120 hr. The class given is functional.
Assay [13] concerns Drosophila melanogaster. Put plainly: Insecticidal activity against first-instar larval stage of Drosophila melanogaster fed with artificial diet containing compound assessed as mortality at 37.6 umol/ml measured after 96 hr. Format: functional.
The test system of assay [14] is Drosophila melanogaster. Put plainly: Insecticidal activity against first-instar larval stage of Drosophila melanogaster fed with artificial diet containing compound assessed as mortality at 18.3 umol/ml measured after 144 hr. Format: functional.
Assay [15] has as its system Drosophila melanogaster. Put plainly: Insecticidal activity against first-instar larval stage of Drosophila melanogaster fed with artificial diet containing compound assessed as mortality at 18.3 umol/ml measured after 120 hr. The class given is functional.
Assay [16] concerns Drosophila melanogaster. Put plainly: Insecticidal activity against first-instar larval stage of Drosophila melanogaster fed with artificial diet containing compound assessed as mortality at 18.3 umol/ml measured after 96 hr. Format: functional.
In assay [17] the test system is Drosophila melanogaster. Put plainly: Insecticidal activity against first-instar larval stage of Drosophila melanogaster fed with artificial diet containing compound assessed as mortality at 8.3 umol/ml measured after 144 hr. The class given is functional.
For assay [18], the system named is Drosophila melanogaster. Put plainly: Insecticidal activity against first-instar larval stage of Drosophila melanogaster fed with artificial diet containing compound assessed as mortality at 8.3 umol/ml measured after 120 hr. Format: functional.
For assay [19], the system named is Drosophila melanogaster. Put plainly: Insecticidal activity against first-instar larval stage of Drosophila melanogaster fed with artificial diet containing compound assessed as mortality at 8.3 umol/ml measured after 96 hr. The class given is functional.
Assay [20] concerns Drosophila melanogaster. Put plainly: Insecticidal activity against first-instar larval stage of Drosophila melanogaster fed with artificial diet containing compound assessed as mortality measured after 72 hr. Conditions: read-out: LD50 (the source's name). Format: functional.
Another assay deals with Spodoptera frugiperda. Put plainly: Insecticidal activity against Spodoptera frugiperda (fall armyworm) larvae assessed as mortality at 25 ppm. Format: functional.
The target in assay [21] is Acetylcholinesterase (Spodoptera litura) (UniProt C5IU80). Put plainly: Inhibition of acetylcholinesterase in Spodoptera frugiperda (fall armyworm) at 15 ppm.
Acetylcholinesterase (Spodoptera litura), sequence (C5IU80 as listed by the source): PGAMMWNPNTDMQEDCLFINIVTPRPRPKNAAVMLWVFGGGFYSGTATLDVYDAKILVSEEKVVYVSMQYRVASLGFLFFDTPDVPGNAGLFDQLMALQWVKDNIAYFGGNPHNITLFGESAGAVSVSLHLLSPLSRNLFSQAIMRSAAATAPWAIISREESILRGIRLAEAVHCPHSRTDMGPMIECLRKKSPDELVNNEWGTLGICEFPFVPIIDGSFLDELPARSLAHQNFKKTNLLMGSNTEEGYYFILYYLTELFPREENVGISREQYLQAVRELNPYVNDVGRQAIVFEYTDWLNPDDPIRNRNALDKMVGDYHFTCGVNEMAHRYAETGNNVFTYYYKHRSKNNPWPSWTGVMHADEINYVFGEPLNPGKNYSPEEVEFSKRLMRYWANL

For orientation: mortality means the share of the test organisms that died. Take `C=C(C)[C@@H]1CC[C@@]2(C)CCC(=O)C(C)=C2C1` [ALPHA-CYPERONE]: the LC50 in the assay on Drosophila melanogaster [1] worked out at 4.99 mM. In addition, the mortality in the assay on Drosophila melanogaster [2] is recorded as 100%; in the assay on Drosophila melanogaster [3], 100%; in the assay with Drosophila melanogaster [4] it was 96.7%; in the assay on Drosophila melanogaster [5], 100%; with Drosophila melanogaster [6] it was 83%; in the assay with Drosophila melanogaster [7], 100%. The mortality in the assay with Drosophila melanogaster [8] is on record as 76.6%; with Drosophila melanogaster [9], 70%; in the assay with Drosophila melanogaster [10], 100%.

Consider `CC1=C2C[C@H](C(C)(O)CO)CC[C@@]2(C)CCC1=O` (stereo not given in full), for which the mortality in the assay on Drosophila melanogaster [11] is on record as 23%; in the assay on Drosophila melanogaster [12] it was 23%; with Drosophila melanogaster [13], 23%; in the assay with Drosophila melanogaster [2], 20%; in the assay with Drosophila melanogaster [3], 20%; with Drosophila melanogaster [4], 20%. The mortality is listed as 23% with Drosophila melanogaster [14]; 23% in the assay with Drosophila melanogaster [15]; 23% with Drosophila melanogaster [16]; 10% in the assay with Drosophila melanogaster [5]; 10% in the assay on Drosophila melanogaster [6]; 10% in the assay on Drosophila melanogaster [17]. The mortality in the assay on Drosophila melanogaster [18] is on record as 10%; in the assay on Drosophila melanogaster [19], 10%; in the assay with Drosophila melanogaster [7] it was 10%; in the assay with Drosophila melanogaster [8], 10%; in the assay with Drosophila melanogaster [9], 10%; with Drosophila melanogaster [10], 0%.

Consider `C=C(C)[C@@H]1CC[C@@]2(C)CC[C@@H](O)C(C)=C2C1` [3ALPHA-HYDROXY-CYPERONE], for which the mortality with Drosophila melanogaster [11] stood at 10%; in the assay on Drosophila melanogaster [12], 10%; in the assay with Drosophila melanogaster [13] it was 10%; with Drosophila melanogaster [2] it was 6.7%; in the assay with Drosophila melanogaster [3], 6.7%; in the assay with Drosophila melanogaster [4], 0%. Moreover, the mortality in the assay on Drosophila melanogaster [14] was 6.6%; with Drosophila melanogaster [15] it was 3.3%; in the assay with Drosophila melanogaster [16], 3.3%; in the assay on Drosophila melanogaster [5], 0%; in the assay with Drosophila melanogaster [6], 0%; in the assay with Drosophila melanogaster [17], 0%. In addition, the mortality in the assay with Drosophila melanogaster [18] amounted to 0%; in the assay on Drosophila melanogaster [19] it was 0%; in the assay on Drosophila melanogaster [7], 0%; in the assay on Drosophila melanogaster [8], 0%; in the assay on Drosophila melanogaster [9], 0%; in the assay with Drosophila melanogaster [10], 3.3%.

On to `C=C(C)[C@@H]1CC[C@]2(C)CCC(=O)C[C@]2(O)C1` [5-HYDROXY-14-NOREUDESM-11-EN-3-ONE], for which the mortality with Drosophila melanogaster [11] was determined as 23.3%; in the assay with Drosophila melanogaster [12], 23.3%; with Drosophila melanogaster [13], 23.3%; in the assay on Drosophila melanogaster [2], 16.6%; with Drosophila melanogaster [3] it was 13.3%; with Drosophila melanogaster [4] it was 13%. In addition, the mortality in the assay on Drosophila melanogaster [14] came to 20%; in the assay with Drosophila melanogaster [15], 20%; with Drosophila melanogaster [16] it was 20%; in the assay on Drosophila melanogaster [5], 6.7%; with Drosophila melanogaster [6], 3.3%; in the assay on Drosophila melanogaster [17] it was 16.6%. Moreover, the mortality with Drosophila melanogaster [18] came to 16.6%; in the assay on Drosophila melanogaster [19], 6.6%; with Drosophila melanogaster [7], 6.7%; in the assay with Drosophila melanogaster [8], 6.7%; in the assay with Drosophila melanogaster [9], 0%; with Drosophila melanogaster [10], 13.3%.

On to `C=C(C)[C@@H]1CC[C@@]2(C)CC[C@H](O)C(C)=C2C1` [3BETA-HYDROXY-CYPERONE], for which the LC50 in the assay with Drosophila melanogaster [20] amounted to 9.36 mM. For the same compound, the mortality in the assay on Drosophila melanogaster [2] is recorded as 100%; in the assay on Drosophila melanogaster [3] it was 96%; with Drosophila melanogaster [4], 80%; in the assay on Drosophila melanogaster [5] it was 73.3%; in the assay on Drosophila melanogaster [6] it was 36.7%; in the assay on Drosophila melanogaster [7] it was 50%. Besides, the mortality with Drosophila melanogaster [8] turned out to be 50%; in the assay on Drosophila melanogaster [9] it was 20%; in the assay on Drosophila melanogaster [10] it was 73.3%.

`CC(=O)OC[C@H]1C[C@@H](OC(C)=O)[C@@H](OC(C)=O)[C@@]2(C)[C@H](OC(=O)c3ccccc3)[C@@H](OC(C)=O)[C@@H]3[C@H](OC(C)=O)[C@]12OC3(C)C`: the mortality at 25 ppm in the assay on Spodoptera frugiperda was 100%.

As to `C=C(C)[C@@H]1CC[C@]2(C)CCC(=O)[C@H](C)[C@]2(O)C1` [5ALPHA-HYDROXY-14-EUDESM-11-EN-3-ONE], the LC50 with Drosophila melanogaster [20] was determined as 42.6 mM. The mortality with Drosophila melanogaster [11] turned out to be 40%; in the assay with Drosophila melanogaster [12] it was 36.6%; in the assay on Drosophila melanogaster [13], 36.6%; in the assay with Drosophila melanogaster [2], 33.3%; in the assay on Drosophila melanogaster [3] it was 0%; in the assay on Drosophila melanogaster [4], 0%. Besides, the mortality turned out to be 26.7% with Drosophila melanogaster [14]; 20% in the assay on Drosophila melanogaster [15]; 20% with Drosophila melanogaster [16]; 0% with Drosophila melanogaster [5]; 0% in the assay with Drosophila melanogaster [6]; 23.3% with Drosophila melanogaster [17]. The mortality is listed as 16.7% with Drosophila melanogaster [18]; 16.7% in the assay on Drosophila melanogaster [19]; 0% with Drosophila melanogaster [7]; 0% with Drosophila melanogaster [8]; 0% in the assay on Drosophila melanogaster [9]; 13.3% in the assay on Drosophila melanogaster [10].

On to `C=C(C)[C@@H]1CC[C@@]2(C)CCC(O)C(C)=C2C1` (mixture of isomers), for which the LC50 in the assay on Drosophila melanogaster [1] came out at 8.78 mM. Besides, the mortality in the assay with Drosophila melanogaster [2] worked out at 100%; in the assay on Drosophila melanogaster [3], 96%; in the assay with Drosophila melanogaster [4], 90%; in the assay on Drosophila melanogaster [5] it was 86.7%; with Drosophila melanogaster [6], 70%; in the assay on Drosophila melanogaster [7], 100%. Moreover, the mortality in the assay with Drosophila melanogaster [8] is 70%; with Drosophila melanogaster [9], 50%; with Drosophila melanogaster [10], 100%.

As for `C=C(C)[C@@H]1CC[C@]2(C)CCC(=O)C(C)=C2C1` [(-)-10-EPI-ALPHA-CYPERONE], the mortality stood at 0.11% in the assay on Drosophila melanogaster [2]; 0.11% with Drosophila melanogaster [3]; 0% in the assay with Drosophila melanogaster [4]; 0% with Drosophila melanogaster [5]; 0% with Drosophila melanogaster [6]; 0% in the assay on Drosophila melanogaster [7]. For the same compound, the mortality in the assay on Drosophila melanogaster [8], in the assay on Drosophila melanogaster [9] and with Drosophila melanogaster [10] was 0% throughout.

A word on the inhibition: it is the change of the read-out against control, counted positive when it falls. Lower therefore signals a response near the control. `CC(=O)OC[C@H]1C[C@@H](OC(C)=O)[C@@H](OC(C)=O)[C@@]2(C)[C@H](OC(=O)c3ccco3)[C@@H](OC(C)=O)[C@@H]3[C@H](OC(C)=O)[C@]12OC3(C)C` came in with an inhibition in [21] of 100%. In addition, the mortality at 25 ppm in the assay on Spodoptera frugiperda worked out at 100%.

Values taken from ChEMBL document CHEMBL3044929, “Insecticidal activity of sesquiterpenes skeleton synthesized by the conventional Robinson annulations reaction on Drosophila melanogaster” (2013).
